Results taken from ChEMBL document CHEMBL1135000, “Stereoselective and improved syntheses and anticancer testing of 3'-O-silatranylthymidines” (Bioorg Med Chem Lett, 2002).

Experiments:
Hepatitis B virus [1] = assay: Cytotoxicity when tested for inhibition against hepatitis B virus in HBV-producing human liver cell line 2.2.15; format: functional; details: HepG2 2.2.15
Hepatitis B virus [2] = assay: Effective concentration required for inhibition against hepatitis B virus in HBV-producing human liver cell line 2.2.15; format: functional, organism-based; details: HepG2 2.2.15
Human alphaherpesvirus 2 = assay: Inhibition against herpes simplex virus type 2, measured by a cytopathic effect inhibition assay with human foreskin fibroblast (HFF) cells infected with HSV; Inactive; format: functional, organism-based; details: Human alphaherpesvirus 2, HFF
Human alphaherpesvirus 1 = assay: Inhibition against herpes simplex virus type 1, measured by a cytopathic effect inhibition assay with human foreskin fibroblast (HFF)cells infected with HSV; Inactive; format: functional, organism-based; details: Human alphaherpesvirus 1, HFF

Row | EC50 (Hepatitis B virus [2]) [µM] | Structure (SMILES) | CC50 (Hepatitis B virus [1]) [µM] | EC50 (Human alphaherpesvirus 2) [µg/mL] | EC50 (Human alphaherpesvirus 1) [µg/mL]
1 | > 10 | Cc1cn([C@H]2C[C@H](O[Si]34OCCN(CCO3)CCO4)[C@@H](CO)O2)c(=O)[nH]c1=O | 1290 |  | 
2 |  | Cc1cn([C@H]2C[C@H](O[Si]34OC(C)CN(CC(C)O3)CC(C)O4)[C@@H](CO)O2)c(=O)[nH]c1=O (some centres undefined) |  | > 100 | > 100
